Laboratory results as given in US7964607B2, “Pyrazolo[3,4-d]pyrimidine compounds” (Pfizer Inc., priority 2007, dated 2011).

These compounds were tested against T1, human recombinant PDE9 enzyme (Homo sapiens, UniProt O76083) (assay: Phosphodiesterase 9 (PDE9) inhibitory activity, Scintillation Proximity (SPA) assay). Settings: not given.
T1 construct: made in house; host or cells: SF-9 insect cells
Format: biochemical
In short: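 Scintillation proximity read-out of [3H]cGMP hydrolysis after 30 min at room temperature, with enzyme addition starting the reaction. The enzyme was human recombinant PDE9 expressed in SF-9 cells, titrated to keep substrate turnover at 20% or less. Compound wells held 2% DMSO final, and background was defined with excess PDE inhibitor.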

T1 sequence (O76083 whole entry): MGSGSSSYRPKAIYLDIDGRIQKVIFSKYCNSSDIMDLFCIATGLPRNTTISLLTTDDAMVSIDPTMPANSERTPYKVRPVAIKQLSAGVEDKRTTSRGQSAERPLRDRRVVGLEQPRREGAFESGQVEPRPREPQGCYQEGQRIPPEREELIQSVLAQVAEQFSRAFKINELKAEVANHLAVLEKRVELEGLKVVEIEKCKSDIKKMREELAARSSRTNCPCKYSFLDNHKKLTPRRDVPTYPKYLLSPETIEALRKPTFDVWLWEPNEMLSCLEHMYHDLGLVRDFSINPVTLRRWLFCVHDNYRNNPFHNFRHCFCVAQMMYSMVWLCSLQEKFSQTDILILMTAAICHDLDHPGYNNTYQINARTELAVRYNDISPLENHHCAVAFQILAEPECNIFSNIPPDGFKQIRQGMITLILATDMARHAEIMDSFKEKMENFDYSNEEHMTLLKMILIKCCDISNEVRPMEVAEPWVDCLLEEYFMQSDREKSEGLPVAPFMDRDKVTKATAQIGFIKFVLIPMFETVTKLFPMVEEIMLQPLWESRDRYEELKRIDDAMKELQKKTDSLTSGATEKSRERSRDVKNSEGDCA

| Compound | IC50 |
| --- | --- |
| C[C@@H]1CN(Cc2ccccc2)C[C@H]1c1nc2c(cnn2C2CCOCC2)c(=O)[nH]1 [Example 61, 6-[(3S,4S)-1-benzyl-4-methylpyrrolidin-3-yl]-1-(tetrahydro-2H-pyran-4-yl)-1,5-dihydro-4H-pyrazolo[3,4-d]pyrimidin-4-one] | 7.35 nM |
| Cc1ncc(CN2C[C@@H](C)[C@H](c3nc4c(cnn4C4CCOCC4)c(=O)[nH]3)C2)cn1 [Example 73, 6-{(3S,4S)-4-methyl-1-[(2-methylpyrimidin-5-yl)methyl]pyrrolidin-3-yl}-1-(tetrahydro-2H-pyran-4-yl)-1,5-dihydro-4H-pyrazolo[3,4-d]pyrimidin-4-one] | 6.01 nM |
| Cc1cnc(CN2C[C@@H](C)[C@H](c3nc4c(cnn4C4CCOCC4)c(=O)[nH]3)C2)cn1 [Example 75, 6-{(3S,4S)-4-methyl-1-[(5-methylpyrazin-2-yl)methyl]pyrrolidin-3-yl}-1-(tetrahydro-2H-pyran-4-yl)-1,5-dihydro-4H-pyrazolo[3,4-d]pyrimidin-4-one] | 5.46 nM |
| Cc1ccc(CN2C[C@@H](C)[C@H](c3nc4c(cnn4C4CCOCC4)c(=O)[nH]3)C2)cn1 [Example 79, 6-{(3S,4S)-4-methyl-1-[(6-methylpyridin-3-yl)methyl]pyrrolidin-3-yl}-1-(tetrahydro-2H-pyran-4-yl)-1,5-dihydro-4H-pyrazolo[3,4-d]pyrimidin-4-one] | 3.72 nM |

Same assay, conditions: human recombinant PDE9 from SF-9 cells; 50 nM [3H]cGMP; room temperature, 30 min; Examples 3-114; read-out: G5678A (U): IC50

| IC50 | Compound |
| --- | --- |
| 40.7 nM | C[C@@H]1CN(Cc2cnn3c2CCCC3)C[C@H]1c1nc2c(cnn2C2CCCC2)c(=O)[nH]1 [Example 48, 1-cyclopentyl-6-[(3S,4S)-4-methyl-1-(4,5,6,7-tetrahydropyrazolo[1,5-a]pyridin-3-ylmethyl)pyrrolidin-3-yl]-1,5-dihydro-4H-pyrazolo[3,4-d]pyrimidin-4-one] |
| 4.55 nM | C[C@@H]1CN(Cc2nc3ccccc3n2C)C[C@H]1c1nc2c(cnn2C2CCCC2)c(=O)[nH]1 [Example 49, 1-cyclopentyl-6-{(3S,4S)-4-methyl-1-[(1-methyl-1H-benzimidazol-2-yl)methyl]pyrrolidin-3-yl}-1,5-dihydro-4H-pyrazolo[3,4-d]pyrimidin-4-one] |
| 125 nM | Cc1cnc(CN2C[C@@H](C)[C@H](c3nc4c(cnn4C(C)C)c(=O)[nH]3)C2)cn1 [Example 50, 1-isopropyl-6-{(3S,4S)-4-methyl-1-[(5methylpyrazin-2-yl)methyl]pyrrolidin-3-yl}-1,5-dihydro-4H-pyrazolo[3,4-d]pyrimidin-4-one] |
| 8.19 nM | C[C@@H]1CN(Cc2cc3ccccc3nn2)C[C@H]1c1nc2c(cnn2C2CCCC2)c(=O)[nH]1 [Example 51, 6-[(3S,4S)-1-(cinnolin-3-ylmethyl)-4-methylpyrrolidin-3-yl]-1-cyclopentyl-1,5-dihydro-4H-pyrazolo[3,4-d]pyrimidin-4-one] |
| 7.3 nM | Cc1nccc(CN2C[C@@H](C)[C@H](c3nc4c(cnn4C4CCCC4)c(=O)[nH]3)C2)n1 [Example 53, 1-cyclopentyl-6-{(3S,4S)-4-methyl-1-[(2-methylpyrimidin-4-yl)methyl]pyrrolidin-3-yl}-1,5-dihydro-4H-pyrazolo[3,4-d]pyrimidin-4-one] |
| 14.7 nM | C[C@@H]1CN(Cc2ccnc(N(C)C)n2)C[C@H]1c1nc2c(cnn2C2CCCC2)c(=O)[nH]1 [Example 54, 1-cyclopentyl-6-[(3S,4S)-1-{[2-(dimethylamino)pyrimidin-4-yl]methyl}-4-methylpyrrolidin-3-yl]-1,5-dihydro-4H-pyrazolo[3,4-d]pyrimidin-4-one] |
| 17.1 nM | CC(C)n1ncc2c(=O)[nH]c([C@@H]3CN(Cc4ccnc5cccnc45)C[C@H]3C)nc21 [Example 65, 1-isopropyl-6-[(3S,4S)-4-methyl-1-(1,5-naphthyridin-4-ylmethyl)pyrrolidin-3-yl]-1,5-dihydro-4H-pyrazolo[3,4-d]pyrimidin-4-one] |
| 18.1 nM | CC(C)n1ncc2c(=O)[nH]c([C@@H]3CN(Cc4ccnc5ncccc45)C[C@H]3C)nc21 [Example 66] |
| 9.74 nM | CC(C)n1ncc2c(=O)[nH]c([C@@H]3CN(Cc4ccnc5ccccc45)C[C@H]3C)nc21 [Example 67] |
| 36.7 nM | CC(C)n1ncc2c(=O)[nH]c([C@@H]3CN(Cc4ccnc5nccnc45)C[C@H]3C)nc21 [Example 68, 1-isopropyl-6-[(3S,4S)-4-methyl-1-(pyrido[2,3-b]pyrazin-8-ylmethyl)pyrrolidin-3-yl]-1,5-dihydro-4H-pyrazolo[3,4-d]pyrimidin-4-one] |
| 3.5 nM | COc1ccc(CN2C[C@@H](C)[C@H](c3nc4c(cnn4C4CCOCC4)c(=O)[nH]3)C2)cn1 [Example 76, 6-{(3S,4S)-1-[(6-methoxypyridin-3-yl)methyl]-4-methylpyrrolidin-3-yl}-1-(tetrahydro-2H-pyran-4-yl)-1,5-dihydro-4H-pyrazolo[3,4-d]pyrimidin-4-one] |
| 1.24 nM | C[C@@H]1CN(Cc2cnc3ccccc3c2)C[C@H]1c1nc2c(cnn2C2CCOCC2)c(=O)[nH]1 [Example 77, 6-[(3S,4S)-4-methyl-1-(quinolin-3-ylmethyl)pyrrolidin-3-yl]-1-(tetrahydro-2H-pyran-4-yl)-1,5-dihydro-4H-pyrazolo[3,4-d]pyrimidin-4-one] |
| 4.35 nM | Cc1nccc(CN2C[C@@H](C)[C@H](c3nc4c(cnn4C4CCOCC4)c(=O)[nH]3)C2)n1 [Example 78, 6-{(3S,4S)-4-methyl-1-[(2-methylpyrimidin-4-yl)methyl]pyrrolidin-3-yl}-1-(tetrahydro-2H-pyran-4-yl)-1,5-dihydro-4H-pyrazolo[3,4-d]pyrimidin-4-one] |
| 3.72 nM | C[C@@H]1CN(Cc2ccc(C(F)(F)F)nc2)C[C@H]1c1nc2c(cnn2C2CCOCC2)c(=O)[nH]1 [Example 80, 6-[(3S,4S)-4-methyl-1-{[6-(trifluoromethyl)pyridin-3-yl]methyl}pyrrolidin-3-yl]-1-(tetrahydro-2H-pyran-4-yl)-1,5-dihydro-4H-pyrazolo[3,4-d]pyrimidin-4-one] |
| 2.92 nM | C[C@@H]1CN(Cc2nc3cnccc3n2C)C[C@H]1c1nc2c(cnn2C2CCOCC2)c(=O)[nH]1 [Example 81, 6-{(3S,4S)-4-methyl-1-[(1-methyl-1H-imidazo[4,5-c]pyridin-2-yl)methyl]pyrrolidin-3-yl}-1-(tetrahydro-2H-pyran-4-yl)-1,5-dihydro-4H-pyrazolo[3,4-d]pyrimidin-4-one] |
| 5.18 nM | Cc1cc(CN2C[C@@H](C)[C@H](c3nc4c(cnn4C4CCOCC4)c(=O)[nH]3)C2)n(C)n1 [Example 82, 6-{(3S,4S)-1-[(1,3-dimethyl-1H-pyrazolo-5-yl)methyl]-4-methylpyrrolidin-3-yl}-1-(tetrahydro-2H-pyran-4-yl)-1,5-dihydro-4H-pyrazolo[3,4-d]pyrimidin-4-one] |
| 1.87 nM | C[C@@H]1CN(Cc2ccc3nsnc3c2)C[C@H]1c1nc2c(cnn2C2CCOCC2)c(=O)[nH]1 [Example 84, 6-[(3S,4S)-1-(2,1,3-benzothiadiazol-5-ylmethyl)-4-methylpyrrolidin-3-yl]-1-(tetrahydro-2H-pyran-4-yl)-1,5-dihydro-4H-pyrazolo[3,4-d]pyrimidin-4-one] |
| 0.903 nM | C[C@@H]1CN(Cc2cnc3ccccc3n2)C[C@H]1c1nc2c(cnn2C2CCOCC2)c(=O)[nH]1 [Example 85] |
| 1.44 nM | C[C@@H]1CN(Cc2ccnc3ccccc23)C[C@H]1c1nc2c(cnn2C2CCOCC2)c(=O)[nH]1 [Example 86, 6-[(3S,4S)-4-methyl-1-(quinolin-4-ylmethyl)pyrrolidin-3-yl]-1-(tetrahydro-2H-pyran-4-yl)-1,5-dihydro-4H-pyrazolo[3,4-d]pyrimidin-4-one] |
